Tests used:
[1] = molecular target: cGMP-inhibited 3',5'-cyclic phosphodiesterase 3A (Homo sapiens) (UniProt Q14432); settings: Compound concentration 10.0 uM
[2] = molecular target: Histamine H2 receptor (Homo sapiens) (UniProt P25021); settings: Compound concentration 10.0 uM
[3] = molecular target: Adrenergic receptor alpha-2 (Rattus norvegicus) (UniProt P22086+P19328+P22909); settings: Compound concentration 10.0 uM
[4] = molecular target: Sodium-dependent dopamine transporter (Homo sapiens) (UniProt Q01959); settings: Compound concentration 10.0 uM
[5] = molecular target: Sodium/potassium-transporting ATPase subunit alpha-1 (Sus scrofa) (UniProt P05024); settings: Compound concentration 10.0 uM
[6] = molecular target: Thromboxane-A synthase (Homo sapiens) (UniProt P24557); settings: Compound concentration 10.0 uM
[7] = molecular target: Androgen receptor (Rattus norvegicus) (UniProt P15207); settings: Compound concentration 10.0 uM
[8] = molecular target: D(3) dopamine receptor (Homo sapiens) (UniProt P35462); settings: Compound concentration 10.0 uM
[9] = molecular target: Beta-2 adrenergic receptor (Rattus norvegicus) (UniProt P10608); settings: Compound concentration 10.0 uM
[10] = molecular target: Nitric oxide synthase 3 (Rattus norvegicus) (UniProt Q62600); settings: Compound concentration 10.0 uM
[11] = molecular target: Neutrophil elastase (Homo sapiens) (UniProt P08246); settings: Compound concentration 10.0 uM
[12] = molecular target: Nitric oxide synthase 3 (Bos taurus) (UniProt P29473); settings: Compound concentration 10.0 uM
[13] = molecular target: Carbonic anhydrase 6 (Homo sapiens) (UniProt P23280); settings: Compound concentration 10.0 uM
[14] = molecular target: 5-hydroxytryptamine receptor 4 (Cavia porcellus) (UniProt O70528); settings: Compound concentration 10.0 uM
[15] = molecular target: Platelet-activating factor receptor (Homo sapiens) (UniProt P25105); settings: Compound concentration 10.0 uM
[16] = molecular target: Leukotriene C4 synthase (Cavia porcellus) (UniProt A6XA80); settings: Compound concentration 10.0 uM
[17] = molecular target: Polyunsaturated fatty acid 5-lipoxygenase (Homo sapiens) (UniProt P09917); settings: Compound concentration 10.0 uM
[18] = molecular target: Calpain-1 catalytic subunit (Homo sapiens) (UniProt P07384); settings: Compound concentration 10.0 uM
[19] = molecular target: 5-hydroxytryptamine receptor 5A (Homo sapiens) (UniProt P47898); settings: Compound concentration 10.0 uM
[20] = molecular target: Type-1 angiotensin II receptor (Oryctolagus cuniculus) (UniProt P34976); settings: Homo sapiens; Compound concentration 10.0 uM
[21] = molecular target: Acetylcholinesterase (Homo sapiens) (UniProt P22303); settings: Compound concentration 10.0 uM
[22] = molecular target: Sodium-dependent serotonin transporter (Homo sapiens) (UniProt P31645); settings: Compound concentration 10.0 uM
[23] = molecular target: Gamma-aminobutyric acid receptor subunit beta-1 (Homo sapiens) (UniProt P18505); settings: Rattus norvegicus; Compound concentration 10.0 uM
[24] = molecular target: Glutamate receptor ionotropic, NMDA 1 (Rattus norvegicus) (UniProt P35439); settings: Compound concentration 10.0 uM
[25] = molecular target: T1, 5-hydroxytryptamine receptor 3A (Homo sapiens) (UniProt P46098); settings: Compound concentration 10.0 uM
T1 sequence (whole entry): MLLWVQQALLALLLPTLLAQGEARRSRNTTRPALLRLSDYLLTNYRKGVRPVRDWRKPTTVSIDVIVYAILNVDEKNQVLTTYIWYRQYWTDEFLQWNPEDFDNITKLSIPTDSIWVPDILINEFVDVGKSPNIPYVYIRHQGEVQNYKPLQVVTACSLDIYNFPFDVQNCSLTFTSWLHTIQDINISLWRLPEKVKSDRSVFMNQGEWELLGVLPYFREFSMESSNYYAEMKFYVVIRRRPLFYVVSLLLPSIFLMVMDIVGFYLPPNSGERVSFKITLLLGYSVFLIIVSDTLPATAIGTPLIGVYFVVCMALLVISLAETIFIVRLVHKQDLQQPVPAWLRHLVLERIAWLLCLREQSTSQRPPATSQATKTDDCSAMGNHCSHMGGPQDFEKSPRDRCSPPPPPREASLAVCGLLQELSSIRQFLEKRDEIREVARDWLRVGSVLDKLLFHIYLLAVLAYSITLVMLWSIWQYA

[26] = molecular target: T2, D(4) dopamine receptor (Homo sapiens) (UniProt P21917); settings: Compound concentration 10.0 uM
T2 sequence (whole entry): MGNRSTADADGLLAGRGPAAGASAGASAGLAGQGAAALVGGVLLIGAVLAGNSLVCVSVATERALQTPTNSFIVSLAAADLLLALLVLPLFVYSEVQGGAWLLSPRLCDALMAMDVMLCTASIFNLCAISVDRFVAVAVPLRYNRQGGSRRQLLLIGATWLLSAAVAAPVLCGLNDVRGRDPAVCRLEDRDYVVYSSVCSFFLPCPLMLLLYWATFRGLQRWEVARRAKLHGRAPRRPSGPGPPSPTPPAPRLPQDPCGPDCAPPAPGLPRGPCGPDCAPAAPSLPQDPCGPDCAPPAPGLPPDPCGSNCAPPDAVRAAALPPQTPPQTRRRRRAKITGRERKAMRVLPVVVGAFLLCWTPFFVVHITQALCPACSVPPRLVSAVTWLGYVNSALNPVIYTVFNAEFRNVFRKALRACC

[27] = molecular target: Muscarinic acetylcholine receptor M3 (Homo sapiens) (UniProt P20309); settings: Compound concentration 10.0 uM
[28] = molecular target: Beta-1 adrenergic receptor (Homo sapiens) (UniProt P08588); settings: Compound concentration 10.0 uM
[29] = molecular target: 5-hydroxytryptamine receptor 1A (Homo sapiens) (UniProt P08908); settings: Compound concentration 10.0 uM
[30] = molecular target: D(1A) dopamine receptor (Homo sapiens) (UniProt P21728); settings: Compound concentration 10.0 uM

Chain of 5-hydroxytryptamine receptor 4 (Cavia porcellus) (O70528 whole entry): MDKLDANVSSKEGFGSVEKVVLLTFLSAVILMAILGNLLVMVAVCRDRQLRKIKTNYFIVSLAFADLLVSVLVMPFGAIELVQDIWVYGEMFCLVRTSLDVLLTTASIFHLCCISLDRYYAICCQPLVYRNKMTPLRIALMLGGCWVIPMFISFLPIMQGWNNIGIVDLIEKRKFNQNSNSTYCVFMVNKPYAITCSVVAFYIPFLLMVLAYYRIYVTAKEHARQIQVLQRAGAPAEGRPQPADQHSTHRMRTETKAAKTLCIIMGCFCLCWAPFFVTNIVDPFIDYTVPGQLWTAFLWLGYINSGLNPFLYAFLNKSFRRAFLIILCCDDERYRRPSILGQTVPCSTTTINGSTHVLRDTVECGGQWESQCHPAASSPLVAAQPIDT
Chain of Histamine H2 receptor (Homo sapiens) (P25021 whole entry): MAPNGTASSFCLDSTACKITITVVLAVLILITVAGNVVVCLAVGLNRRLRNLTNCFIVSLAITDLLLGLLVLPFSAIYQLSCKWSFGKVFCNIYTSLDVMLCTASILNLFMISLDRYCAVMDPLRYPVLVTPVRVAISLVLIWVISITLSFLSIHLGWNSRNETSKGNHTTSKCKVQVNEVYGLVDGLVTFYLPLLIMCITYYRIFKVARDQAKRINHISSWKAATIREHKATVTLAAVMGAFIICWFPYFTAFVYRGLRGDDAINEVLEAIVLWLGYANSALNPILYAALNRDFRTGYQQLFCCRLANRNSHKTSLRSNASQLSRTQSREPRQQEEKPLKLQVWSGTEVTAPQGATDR
Chain of Platelet-activating factor receptor (Homo sapiens) (P25105 whole entry): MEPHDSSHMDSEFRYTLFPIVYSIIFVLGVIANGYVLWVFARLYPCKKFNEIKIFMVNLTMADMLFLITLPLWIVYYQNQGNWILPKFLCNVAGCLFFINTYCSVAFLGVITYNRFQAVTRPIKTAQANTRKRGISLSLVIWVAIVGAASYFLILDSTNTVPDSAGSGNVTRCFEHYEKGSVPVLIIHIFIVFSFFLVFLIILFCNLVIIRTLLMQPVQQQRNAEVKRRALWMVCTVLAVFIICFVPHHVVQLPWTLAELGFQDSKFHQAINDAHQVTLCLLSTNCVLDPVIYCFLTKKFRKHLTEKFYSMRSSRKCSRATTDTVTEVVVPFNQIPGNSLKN
Chain of Acetylcholinesterase (Homo sapiens) (P22303 whole entry): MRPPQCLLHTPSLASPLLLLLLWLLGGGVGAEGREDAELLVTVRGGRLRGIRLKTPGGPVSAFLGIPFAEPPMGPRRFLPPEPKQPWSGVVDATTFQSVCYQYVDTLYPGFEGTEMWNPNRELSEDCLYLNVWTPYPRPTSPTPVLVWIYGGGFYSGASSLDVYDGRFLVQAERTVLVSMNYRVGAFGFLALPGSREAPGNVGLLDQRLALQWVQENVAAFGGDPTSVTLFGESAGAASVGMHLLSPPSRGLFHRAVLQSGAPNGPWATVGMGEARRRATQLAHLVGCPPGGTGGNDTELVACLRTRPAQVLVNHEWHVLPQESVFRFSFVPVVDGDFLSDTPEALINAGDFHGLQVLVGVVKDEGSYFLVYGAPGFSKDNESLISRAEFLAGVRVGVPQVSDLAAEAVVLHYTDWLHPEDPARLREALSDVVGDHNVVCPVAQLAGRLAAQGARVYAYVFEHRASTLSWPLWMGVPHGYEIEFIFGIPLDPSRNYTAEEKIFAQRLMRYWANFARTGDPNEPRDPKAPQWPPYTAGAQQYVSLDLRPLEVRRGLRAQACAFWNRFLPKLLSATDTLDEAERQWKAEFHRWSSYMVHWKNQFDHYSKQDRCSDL
Chain of Polyunsaturated fatty acid 5-lipoxygenase (Homo sapiens) (P09917 whole entry): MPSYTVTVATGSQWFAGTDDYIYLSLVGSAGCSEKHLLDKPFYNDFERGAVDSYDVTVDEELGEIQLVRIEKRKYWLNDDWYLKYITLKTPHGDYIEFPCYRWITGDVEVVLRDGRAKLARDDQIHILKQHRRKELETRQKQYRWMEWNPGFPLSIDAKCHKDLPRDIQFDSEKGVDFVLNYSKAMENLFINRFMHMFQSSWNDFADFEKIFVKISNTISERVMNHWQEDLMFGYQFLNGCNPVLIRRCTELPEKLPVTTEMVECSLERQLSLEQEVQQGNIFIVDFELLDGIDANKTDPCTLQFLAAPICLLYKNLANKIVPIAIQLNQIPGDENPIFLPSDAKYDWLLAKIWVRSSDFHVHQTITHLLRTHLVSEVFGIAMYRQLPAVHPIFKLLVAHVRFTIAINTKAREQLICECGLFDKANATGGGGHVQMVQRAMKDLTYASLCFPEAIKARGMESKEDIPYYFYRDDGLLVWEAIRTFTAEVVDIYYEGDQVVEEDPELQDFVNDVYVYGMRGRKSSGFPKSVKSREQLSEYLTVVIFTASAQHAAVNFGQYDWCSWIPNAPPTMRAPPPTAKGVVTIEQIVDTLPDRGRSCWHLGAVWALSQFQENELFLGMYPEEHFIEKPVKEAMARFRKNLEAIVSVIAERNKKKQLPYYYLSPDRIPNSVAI
Chain of Androgen receptor (Rattus norvegicus) (P15207 whole entry S389L): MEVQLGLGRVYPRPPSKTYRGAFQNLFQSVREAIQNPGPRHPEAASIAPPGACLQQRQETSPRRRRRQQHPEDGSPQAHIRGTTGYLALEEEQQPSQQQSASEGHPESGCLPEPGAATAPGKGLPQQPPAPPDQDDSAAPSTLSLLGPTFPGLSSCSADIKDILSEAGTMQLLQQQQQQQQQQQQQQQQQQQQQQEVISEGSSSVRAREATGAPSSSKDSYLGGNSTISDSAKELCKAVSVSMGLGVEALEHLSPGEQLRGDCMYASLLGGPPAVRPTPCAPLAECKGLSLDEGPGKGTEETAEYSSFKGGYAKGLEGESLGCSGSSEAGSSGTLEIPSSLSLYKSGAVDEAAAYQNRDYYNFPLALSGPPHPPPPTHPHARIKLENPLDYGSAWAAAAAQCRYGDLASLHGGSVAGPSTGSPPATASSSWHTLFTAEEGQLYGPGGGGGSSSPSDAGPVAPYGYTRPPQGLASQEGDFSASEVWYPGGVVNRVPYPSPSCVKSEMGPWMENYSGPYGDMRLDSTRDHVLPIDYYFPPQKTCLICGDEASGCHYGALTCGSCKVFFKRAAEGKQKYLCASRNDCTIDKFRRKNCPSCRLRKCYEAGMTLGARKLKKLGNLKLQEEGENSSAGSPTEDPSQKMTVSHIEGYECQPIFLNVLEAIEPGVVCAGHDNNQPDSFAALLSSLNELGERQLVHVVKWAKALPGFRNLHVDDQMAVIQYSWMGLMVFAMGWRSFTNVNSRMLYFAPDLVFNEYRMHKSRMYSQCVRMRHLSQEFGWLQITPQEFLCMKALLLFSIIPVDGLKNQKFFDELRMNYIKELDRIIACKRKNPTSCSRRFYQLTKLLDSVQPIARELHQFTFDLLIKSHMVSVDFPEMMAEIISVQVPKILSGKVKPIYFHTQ
Chain of D(3) dopamine receptor (Homo sapiens) (P35462 whole entry): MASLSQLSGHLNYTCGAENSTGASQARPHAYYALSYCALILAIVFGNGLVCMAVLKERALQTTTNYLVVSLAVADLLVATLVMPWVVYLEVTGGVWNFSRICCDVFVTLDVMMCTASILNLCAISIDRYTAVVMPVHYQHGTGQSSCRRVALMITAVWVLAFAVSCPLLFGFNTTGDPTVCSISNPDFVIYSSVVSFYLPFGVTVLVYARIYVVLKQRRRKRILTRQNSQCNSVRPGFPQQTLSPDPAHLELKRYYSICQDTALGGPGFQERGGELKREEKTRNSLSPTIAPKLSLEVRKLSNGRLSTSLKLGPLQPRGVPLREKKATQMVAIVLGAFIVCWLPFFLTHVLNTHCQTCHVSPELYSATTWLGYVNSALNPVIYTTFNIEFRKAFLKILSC
Chain of cGMP-inhibited 3',5'-cyclic phosphodiesterase 3A (Homo sapiens) (Q14432 whole entry): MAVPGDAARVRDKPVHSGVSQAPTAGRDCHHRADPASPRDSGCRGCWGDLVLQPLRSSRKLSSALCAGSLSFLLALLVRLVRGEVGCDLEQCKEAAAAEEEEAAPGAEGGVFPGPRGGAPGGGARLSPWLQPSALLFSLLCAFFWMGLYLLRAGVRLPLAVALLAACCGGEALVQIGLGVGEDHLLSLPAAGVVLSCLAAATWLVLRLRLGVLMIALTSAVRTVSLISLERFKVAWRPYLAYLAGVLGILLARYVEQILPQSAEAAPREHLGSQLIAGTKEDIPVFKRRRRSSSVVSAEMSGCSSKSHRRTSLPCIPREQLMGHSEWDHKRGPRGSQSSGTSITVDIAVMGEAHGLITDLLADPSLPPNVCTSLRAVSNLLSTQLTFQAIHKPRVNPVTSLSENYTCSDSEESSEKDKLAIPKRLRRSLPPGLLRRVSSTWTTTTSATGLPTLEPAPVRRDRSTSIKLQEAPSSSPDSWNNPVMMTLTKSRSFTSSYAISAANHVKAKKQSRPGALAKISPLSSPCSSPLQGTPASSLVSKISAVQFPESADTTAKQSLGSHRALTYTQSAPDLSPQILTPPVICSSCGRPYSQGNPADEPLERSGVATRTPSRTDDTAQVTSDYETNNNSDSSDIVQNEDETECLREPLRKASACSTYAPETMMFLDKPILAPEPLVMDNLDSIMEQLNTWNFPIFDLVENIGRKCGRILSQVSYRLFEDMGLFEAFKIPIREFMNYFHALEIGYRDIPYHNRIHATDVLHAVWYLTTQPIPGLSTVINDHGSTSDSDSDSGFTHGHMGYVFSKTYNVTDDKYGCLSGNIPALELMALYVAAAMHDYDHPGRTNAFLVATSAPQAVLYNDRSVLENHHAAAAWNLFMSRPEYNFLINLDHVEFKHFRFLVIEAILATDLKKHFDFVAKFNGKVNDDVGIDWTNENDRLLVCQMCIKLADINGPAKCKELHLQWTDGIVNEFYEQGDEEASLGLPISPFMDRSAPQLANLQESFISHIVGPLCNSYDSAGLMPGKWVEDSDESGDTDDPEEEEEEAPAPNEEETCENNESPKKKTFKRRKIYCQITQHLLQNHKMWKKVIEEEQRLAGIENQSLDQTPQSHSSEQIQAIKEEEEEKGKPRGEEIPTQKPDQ
Chain of Leukotriene C4 synthase (Cavia porcellus) (A6XA80 whole entry): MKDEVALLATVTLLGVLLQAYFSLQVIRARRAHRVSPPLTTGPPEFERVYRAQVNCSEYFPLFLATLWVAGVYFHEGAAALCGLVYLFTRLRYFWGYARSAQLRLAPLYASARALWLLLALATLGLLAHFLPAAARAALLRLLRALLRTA

CCS(=O)(=O)c1cc2cc(C[C@](O)(CC(C)(C)c3ccc(F)cc3C(N)=O)C(F)(F)F)[nH]c2cn1
inactive: residual activity [1] 82% | residual activity [2] 96% | residual activity [3] 106% | residual activity [4] 106% | residual activity [5] 115% | residual activity [6] 93% | residual activity [7] 101% | residual activity [8] 81% | residual activity [9] 75% | residual activity [10] 99% | residual activity [11] 87% | residual activity [12] 85% | residual activity [13] 85% | residual activity [14] 89% | residual activity [15] 95% | residual activity [16] 104% | residual activity [17] 79% | residual activity [18] 98% | inhibition [19] 12.2% | residual activity [20] 96% | residual activity [21] 91% | residual activity [22] 99% | residual activity [23] 75% | residual activity [24] 103% | residual activity [25] 100% | residual activity [26] 104%

CCS(=O)(=O)c1cc2cc(C[C@@](O)(CC(C)(C)c3ccc(F)cc3C(N)=O)C(F)(F)F)[nH]c2cn1
inactive: inhibition [27] 1.25% | inhibition [28] -8.85% | inhibition [29] -7.37% | inhibition [30] 2.6%
